Laboratory results taken from patent US7109296B2, “Human 5-HT3-C protein” (Ortho-McNeil Pharmaceutical, Inc., priority 1999, dated 2006).

Key:
[1] = target: T1, long form of human 5-HT3-A together with 5-HT3-C (Homo sapiens, UniProt P46098+Q8WXA8); assay: Two-electrode voltage clamp, oocytes co-injected with long form of human 5-HT3-A and 5-HT3-C; type: cell-based; conditions: 10 μM; n=2
T1 construct: Characterization of the Function of Protein Encoded by p5HT3CR in Xenopus oocvtes; expressed in transfected cells; host or cells: Xenopus laevis oocytes co-injected with cRNAs
T1 sequence (P46098 24-510 isoform P46098-2): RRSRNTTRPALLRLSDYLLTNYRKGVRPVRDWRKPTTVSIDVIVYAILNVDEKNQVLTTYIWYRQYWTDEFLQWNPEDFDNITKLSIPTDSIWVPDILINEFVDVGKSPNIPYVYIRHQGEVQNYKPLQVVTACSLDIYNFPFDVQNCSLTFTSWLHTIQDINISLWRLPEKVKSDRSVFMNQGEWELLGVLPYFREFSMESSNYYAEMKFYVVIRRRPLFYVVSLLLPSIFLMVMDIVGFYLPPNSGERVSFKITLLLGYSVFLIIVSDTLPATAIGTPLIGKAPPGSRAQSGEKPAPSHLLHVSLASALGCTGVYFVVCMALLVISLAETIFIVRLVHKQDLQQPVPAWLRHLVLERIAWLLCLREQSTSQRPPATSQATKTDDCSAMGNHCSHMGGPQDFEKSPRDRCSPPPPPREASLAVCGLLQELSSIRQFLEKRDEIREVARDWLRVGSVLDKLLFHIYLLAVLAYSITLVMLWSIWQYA
T1 sequence (Q8WXA8 28-447): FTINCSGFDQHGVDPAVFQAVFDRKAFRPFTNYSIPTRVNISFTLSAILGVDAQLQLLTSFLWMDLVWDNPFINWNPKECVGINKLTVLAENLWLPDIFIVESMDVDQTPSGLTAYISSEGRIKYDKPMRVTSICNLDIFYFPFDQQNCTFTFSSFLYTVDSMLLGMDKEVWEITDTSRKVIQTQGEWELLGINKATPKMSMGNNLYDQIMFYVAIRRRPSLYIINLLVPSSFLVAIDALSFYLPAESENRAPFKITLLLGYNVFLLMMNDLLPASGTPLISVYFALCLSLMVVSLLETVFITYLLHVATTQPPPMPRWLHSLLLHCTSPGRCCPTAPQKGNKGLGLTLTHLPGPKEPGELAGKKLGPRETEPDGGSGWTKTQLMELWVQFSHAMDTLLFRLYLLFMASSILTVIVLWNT
Protocol: Characterization of the Function of Protein Encoded by p5HT3CR in Xenopus oocvtes Xenopus laevis oocytes were prepared and injected using standard methods previously described and known in the art (Fraser et al., 1993). Ovarian lobes from adult female Xenopus laevis (Nasco, Fort Atkinson, Wis.) were teased apart, rinsed several times in nominally Ca-free saline containing (in mM): NaCl 82.5, KCl 2.5, MgCl2 1, HEPES 5, adjusted to pH 7.0 with NaOH(OR-2), and gently shaken in OR-2 containing 0.2% collagenase Type 1 (ICN Biomedicals, Aurora, Ohio) for 2–5 hours. When approximately 50% of the follicular layers were removed, Stage V and VI oocytes were selected and rinsed in media consisting of 75% OR-2 and 25% ND-96. The ND-96 contained (in mM): NaCl 100, KCl 2, MgCl2 1, CaCl2 1.8, HEPES 5, Na pyruvate 2.5, gentamicin (50 ug/ml), adjusted to pH 7.0 with NaOH. […] Whole cell agonist-induced currents were measured 1–14 days after injection with a conventional two-electrode voltage clamp (GeneClamp500, Axon Instruments, Foster City, Calif.) using standard methods previously described and known in the art (Dascal, 1987). […]

[2] = target: T2, 5-HT3-A receptors (Homo sapiens, UniProt P46098); assay: FLIPR DiBAC control, cells stably expressing 5-HT3-A receptors; type: cell-based; conditions: control for the DIBAC; increase in fluorescence
T2 sequence (P46098 24-478): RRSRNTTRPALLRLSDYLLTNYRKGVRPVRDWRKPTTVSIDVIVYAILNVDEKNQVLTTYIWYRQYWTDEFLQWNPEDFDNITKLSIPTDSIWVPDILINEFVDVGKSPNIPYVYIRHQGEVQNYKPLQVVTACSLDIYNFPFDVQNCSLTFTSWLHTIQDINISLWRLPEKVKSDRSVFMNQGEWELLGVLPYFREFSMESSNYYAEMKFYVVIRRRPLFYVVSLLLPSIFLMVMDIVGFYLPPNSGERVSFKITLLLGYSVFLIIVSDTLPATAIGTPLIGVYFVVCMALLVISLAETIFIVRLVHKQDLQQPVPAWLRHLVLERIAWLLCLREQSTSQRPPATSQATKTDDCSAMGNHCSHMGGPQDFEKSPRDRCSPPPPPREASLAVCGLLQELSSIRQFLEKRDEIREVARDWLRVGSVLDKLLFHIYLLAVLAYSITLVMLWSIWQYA

NCCc1c[nH]c2ccc(O)cc12 [5-HT, 5-hydroxytryptamine]
sensitivity of oocytes to agonist [1]: insensitive
DiBAC membrane potential response [2]: fast transient depolarization
